{"source": "patent US10851274B2", "about": "“Coolant mixtures for use in heat-exchange devices in the aerospace field” (Safran Electrical & Power, priority 2016, dated 2020)", "origin": "cited, not measured here", "key": {"[1]": {"conditions": "known fluids; for FP: water and antigels, criterion ≥23"}, "[2]": {"conditions": "known fluids, water and antigels; criterion <100"}, "[3]": {"conditions": "known fluids, water and antigels; criterion >500"}, "[4]": {"conditions": "for Toxicity: known coolant fluids, water and antigels, criterion: No; for Toxicity (in words): known fluids"}}, "data": [{"compound": "CCOCC(C)O", "note": "(stereo not shown) [1-ethoxy-2-propanol]", "values": [{"measurement": "FP", "setting": "[1]", "result": 42, "unit": "°C"}, {"measurement": "Tb", "setting": "[2]", "result": 132, "unit": "°C"}, {"measurement": "ΔHvap", "setting": "[3]", "result": 308, "unit": "kJ/kg"}, {"measurement": "Toxicity", "setting": "[4]", "result": "No (a fluid is non-toxic if its oral LD50 is greater than 500 mg/kg)"}]}, {"compound": "COCC(C)O", "note": "(stereo not shown) [1-methoxy-2-propanol]", "values": [{"measurement": "FP", "setting": "[1]", "result": 34, "unit": "°C"}, {"measurement": "Tb", "setting": "[2]", "result": 118, "unit": "°C"}, {"measurement": "ΔHvap", "setting": "[3]", "result": 461, "unit": "kJ/kg"}, {"measurement": "Toxicity", "setting": "[4]", "result": "No (a fluid is non-toxic if its oral LD50 is greater than 500 mg/kg)"}]}, {"compound": "CC(C)=O", "note": "[Acetone]", "values": [{"measurement": "Flammability (in words)", "setting": "[1]", "result": "highly flammable"}, {"measurement": "FP", "setting": "[1]", "result": "−20", "unit": "°C"}, {"measurement": "Tb", "setting": "[2]", "result": 57, "unit": "°C"}, {"measurement": "ΔHvap", "setting": "[3]", "result": 501, "unit": "kJ/kg"}, {"measurement": "Toxicity", "setting": "[4]", "result": "No (a fluid is non-toxic if its oral LD50 is greater than 500 mg/kg)"}]}, {"compound": "N", "note": "[Ammoniac, ammonia]", "values": [{"measurement": "FP", "setting": "[1]", "result": 132, "unit": "°C"}, {"measurement": "Tb", "setting": "[2]", "result": "−33", "unit": "°C"}, {"measurement": "ΔHvap", "setting": "[3]", "result": 1371, "unit": "kJ/kg"}, {"measurement": "Toxicity", "setting": "[4]", "result": "Yes"}, {"measurement": "Toxicity (in words)", "setting": "[4]", "result": "toxic"}]}, {"compound": "O=C=O", "note": "[Carbon dioxide]", "values": [{"measurement": "FP", "setting": "[1]", "result": "None"}, {"measurement": "Tb", "setting": "[2]", "result": "−57", "unit": "°C"}, {"measurement": "ΔHvap", "setting": "[3]", "result": 400, "unit": "kJ/kg"}, {"measurement": "Toxicity", "setting": "[4]", "result": "No (a fluid is non-toxic if its oral LD50 is greater than 500 mg/kg)"}]}, {"compound": "CCO", "note": "[Ethanol]", "values": [{"measurement": "Flammability (in words)", "setting": "[1]", "result": "highly flammable"}, {"measurement": "FP", "setting": "[1]", "result": 13, "unit": "°C"}, {"measurement": "Tb", "setting": "[2]", "result": 78, "unit": "°C"}, {"measurement": "ΔHvap", "setting": "[3]", "result": 837, "unit": "kJ/kg"}, {"measurement": "Toxicity", "setting": "[4]", "result": "No (a fluid is non-toxic if its oral LD50 is greater than 500 mg/kg)"}]}, {"compound": "CCOC(F)(F)C(F)(F)C(F)(F)C(F)(F)F", "note": "[HFE 3M Novec 7100, ethoxynonafluorobutane]", "values": [{"measurement": "FP", "setting": "[1]", "result": "None"}, {"measurement": "Tb", "setting": "[2]", "result": 76, "unit": "°C"}, {"measurement": "ΔHvap", "setting": "[3]", "result": 126, "unit": "kJ/kg"}, {"measurement": "Toxicity", "setting": "[4]", "result": "No (a fluid is non-toxic if its oral LD50 is greater than 500 mg/kg)"}]}, {"compound": "CO", "note": "[Methanol]", "values": [{"measurement": "Flammability (in words)", "setting": "[1]", "result": "highly flammable"}, {"measurement": "FP", "setting": "[1]", "result": 11, "unit": "°C"}, {"measurement": "Tb", "setting": "[2]", "result": 64, "unit": "°C"}, {"measurement": "ΔHvap", "setting": "[3]", "result": 1098, "unit": "kJ/kg"}, {"measurement": "Toxicity", "setting": "[4]", "result": "Yes"}]}, {"compound": "CC(O)CO", "note": "(stereo not shown) [Propylene-glycol, propylene glycol]", "values": [{"measurement": "FP", "setting": "[1]", "result": 107, "unit": "°C"}, {"measurement": "Tb", "setting": "[2]", "result": 187, "unit": "°C"}, {"measurement": "ΔHvap", "setting": "[3]", "result": 736, "unit": "kJ/kg"}, {"measurement": "Toxicity", "setting": "[4]", "result": "No (a fluid is non-toxic if its oral LD50 is greater than 500 mg/kg)"}]}, {"compound": "O", "note": "[Water]", "values": [{"measurement": "Flammability (in words)", "setting": "[1]", "result": "fireproof"}, {"measurement": "FP", "setting": "[1]", "result": "None"}, {"measurement": "Tb", "setting": "[2]", "result": 100, "unit": "°C"}, {"measurement": "Toxicity", "setting": "[4]", "result": "No (a fluid is non-toxic if its oral LD50 is greater than 500 mg/kg)"}, {"measurement": "Toxicity (in words)", "setting": "[4]", "result": "non-toxic"}]}, {"compound": "OCCO", "note": "[ethylene glycol]", "values": [{"measurement": "Toxicity (in words)", "setting": "[4]", "result": "highly toxic"}]}]}
